Patent US5962502A, “Polyamidic acid derivatives with antigastrin activity, a method for their preparation, and their pharmaceutical use” (priority 1993, dated 1999)
pIC50: −log10 of the molar value.

Columns and labels:
central CCK-B receptor = target: T1, central CCK-B receptor (Cavia porcellus, UniProt H0VZC5); test: Inhibition of the binding of [3-H][N-methyl-N-leucine]CCK-8 to guinea-pig cortical membranes; conditions: for pIC50: guinea-pig cortical membranes, 150 minutes at 25° C.
T1 construct: Cerebral cortices of male white guinea-pigs were thus used; from tissue; host or cells: cerebral cortex membranes of male white guinea-pigs
T1 sequence (H0VZC5 1-426): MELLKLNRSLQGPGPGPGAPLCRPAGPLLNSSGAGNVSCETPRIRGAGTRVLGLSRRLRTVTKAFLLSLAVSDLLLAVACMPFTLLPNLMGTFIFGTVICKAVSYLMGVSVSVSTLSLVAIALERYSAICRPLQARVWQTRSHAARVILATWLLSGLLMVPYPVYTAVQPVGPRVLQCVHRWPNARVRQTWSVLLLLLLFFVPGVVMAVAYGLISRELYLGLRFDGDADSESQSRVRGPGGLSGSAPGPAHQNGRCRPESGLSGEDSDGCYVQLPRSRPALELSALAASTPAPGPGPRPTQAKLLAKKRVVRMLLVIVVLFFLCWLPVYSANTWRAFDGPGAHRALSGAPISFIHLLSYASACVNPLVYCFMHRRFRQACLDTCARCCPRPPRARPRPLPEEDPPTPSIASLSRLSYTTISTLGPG
Description: The ability of the compounds of the invention to interact with the central CCK-B receptor was evaluated with the use of non-sulphated [3-H] […] 225 (3) (1990), 1278-1286].
Cerebral cortices of male white guinea-pigs were thus used, according to the method mentioned above, so as to obtain a membrane content corresponding to about 300 mcg of proteins/ml. The membranes were incubated together with the radioactive tracer and the compounds under test for 150 minutes at 25° C. After the supernatant had been discarded, the radioactivity associated with the pellet was determined with a liquid scintillator. The specific binding was determined as the difference between the binding in the absence and in the presence of 5.10^-6 M CCK-8.

mouse = test: Black and White Box test in the mouse (anxiolytic activity); type: in vivo; conditions: for LIGHT TIME TOTAL TIME / LIGHT-DARK MOVEMENTS / MOV. DARK % TOTAL MOV. / TOTAL MOVEMENTS: 5 minutes; for anxiolytic activity, result in words: Black and White Box test, IP
Description: It has recently been postulated that the central CCK-B receptor has an important role in anxiety. This is in accordance with studies also carried out in man, which have shown that the central CCK-B mechanisms have an important function in the mediation of panic attacks [Bradwejn, H. et al; J. Psychopharmacology 6 (1992), 345]. […] This experimental model, which was carried out according to Costall et al [Pharm. Biochem. Behav. 32 (1989), 777-785], used a box with dimensions of 45×21×21(h) cm divided into 2 compartments which communicated with one another through a 13×5 cm hole. The smaller compartment (1/3 of the total area) had black walls, whereas the larger had transparent walls and was illuminated by a lamp which was placed 20 cm above the box and supplied light at 20W. Under the floor there was an activity meter which recorded the movements performed by the animal in the individual compartments. The experiment was started by placing the animal in the centre of the illuminated box; as well as movements, the time which the animal spent in the dark and in the light areas and the number of movements between the 2 compartments were then recorded for 5 minutes. A control animal generally preferred to stay in the dark compartment where it felt better protected from an unusual environmental situation which put it in a state of anxiety. In this experimental model, a compound having anxiolytic activity decreased the % of movements into the dark in comparison with the total movements, increased the movements between the two light-dark compartments, and increased the % of time spent in the light in comparison with the total time.
The results obtained are shown in Table 7, where the activities obtained with compounds 9, 21 and 51 are given, tested in comparison with diazepam.

With `O=C(C[C@@H](NC(=O)c1cc(Cl)cc(Cl)c1)C(=O)N1CCC2(CCCC2)CC1)N[C@H](Cc1ccccc1)C(=O)O` [Compound 44] the pIC50 (central CCK-B receptor) was 6.46.
Compound `O=C(O)CC[C@@H](NC(=O)CC[C@@H](NC(=O)c1cc(Cl)cc(Cl)c1)C(=O)N1CCC2(CCCC2)CC1)C(=O)Nc1ccc2ccccc2c1` [Compound 39] has a pIC50 (central CCK-B receptor) of 6.15.
`O=C(CC[C@@H](NC(=O)c1cccc(Cl)c1)C(=O)NCCC12CC3CC(CC(C3)C1)C2)N[C@H](Cc1c[nH]c2ccccc12)C(=O)O` [Compound 31] was tested, and the pIC50 (central CCK-B receptor) was 4.86.
For `O=C(CC[C@@H](NC(=O)c1cc(Cl)cc(Cl)c1)C(=O)N1CCC2(CCCC2)CC1)N[C@H](Cc1cccnc1)C(=O)O` [Compound 26], the pIC50 (central CCK-B receptor) was 6.60.
In the case of `O=C(O)CC[C@@H](NC(=O)CC[C@@H](NC(=O)c1cc(Cl)cc(Cl)c1)C(=O)N1CCC2(CCCC2)CC1)C(=O)NCCC12CC3CC(CC(C3)C1)C2` [Compound 40], the pIC50 (central CCK-B receptor) was less than 4.52.
With `O=C(CC[C@@H](NC(=O)c1cc(Cl)cc(Cl)c1)C(=O)N1CCC2(CCCC2)CC1)NC(Cc1ccc(Cl)cc1)C(=O)O` (stereo partly drawn) [Compound 17] the pIC50 (central CCK-B receptor) was 6.17.
`CC(NC(=O)CC[C@@H](NC(=O)c1cc(Cl)cc(Cl)c1)C(=O)N1CCC2(CCCC2)CC1)C(=O)O` (stereo partly drawn) [Compound 5] gave a pIC50 (central CCK-B receptor) of 5.88.
`CN1C(=O)CN=C(c2ccccc2)c2cc(Cl)ccc21` [DIAZEPAM, diazepam, reference compound] was tested, and the “EFF. % VS CONTROL (LIGHT TIME TOTAL TIME)” value (mouse; 1.0 mg/kg IP) was 19%, the “EFF. % VS CONTROL (LIGHT-DARK MOVEMENTS)” value (mouse; 1.0 mg/kg IP) was 37% and the “EFF. % VS CONTROL (MOV. DARK % TOTAL MOV.)” value (mouse; 1.0 mg/kg IP) was -5%. For the same compound, the “LIGHT TIME TOTAL TIME” value (mouse; 1.0 mg/kg IP) was 29.3%, the “LIGHT-DARK MOVEMENTS” value (mouse; 1.0 mg/kg IP) was 19.9 and the “MOV. DARK % TOTAL MOV.” value (mouse; 1.0 mg/kg IP) was 53%. The “TOTAL MOVEMENTS” value (mouse; 1.0 mg/kg IP) was 508, the “EFF. % VS CONTROL (LIGHT TIME TOTAL TIME)” value (mouse; 3.0 mg/kg IP) was 37% and the “EFF. % VS CONTROL (LIGHT-DARK MOVEMENTS)” value (mouse; 3.0 mg/kg IP) was 54%. The “EFF. % VS CONTROL (MOV. DARK % TOTAL MOV.)” value (mouse; 3.0 mg/kg IP) was -7%, the “LIGHT TIME TOTAL TIME” value (mouse; 3.0 mg/kg IP) was 33.6% and the “LIGHT-DARK MOVEMENTS” value (mouse; 3.0 mg/kg IP) was 22.3. The “MOV. DARK % TOTAL MOV.” value (mouse; 3.0 mg/kg IP) was 52%, the “TOTAL MOVEMENTS” value (mouse; 3.0 mg/kg IP) was 539 and the “effect on the total movements parameter, result in words” value (mouse; 1 and 3 mg/kg) was “significantly increased”. The “anxiolytic activity, result in words” value (mouse) was “active for all the parameters tested”.
For `CN(C(=O)c1cc(Cl)cc(Cl)c1)[C@H](CCC(=O)N[C@H](Cc1c[nH]c2ccccc12)C(=O)O)C(=O)N1CCC2(CCCC2)CC1` [Compound 46], the pIC50 (central CCK-B receptor) was 6.92.
Compound `O=C(CC[C@@H](NC(=O)c1cc(Cl)cc(Cl)c1)C(=O)N1CCC2(CCCC2)CC1)Nc1cccc(C(=O)O)c1` [Compound 49] has a pIC50 (central CCK-B receptor) of 5.86.
With `O=C(O)CC[C@@H](NC(=O)CC[C@@H](NC(=O)c1cc(Cl)cc(Cl)c1)C(=O)N1CCC2(CCCC2)CC1)C(=O)NCCc1ccccc1` [Compound 41] the pIC50 (central CCK-B receptor) was 6.10.
With `O=C(O)Cc1ccc(NC(=O)CC[C@@H](NC(=O)c2cc(Cl)cc(Cl)c2)C(=O)N2CCC3(CCCC3)CC2)cc1` [Compound 57] the pIC50 (central CCK-B receptor) was 5.11.
With `CC(C)(C)CCNC(=O)[C@@H](CCC(=O)NC(Cc1ccccc1)C(=O)O)NC(=O)c1cccc(Cl)c1` (stereo partly drawn) [Compound 33] the pIC50 (central CCK-B receptor) was less than 4.52.
With `O=C(C[C@@H](NC(=O)c1cc(Cl)cc(Cl)c1)C(=O)N1CCC2(CCCC2)CC1)Nc1ccccc1C(=O)O` [Compound 55] the pIC50 (central CCK-B receptor) was less than 4.52.
Work on `CCCCCN(CCCCC)C(=O)[C@@H](CCC(=O)N[C@H](Cc1c[nH]c2ccccc12)C(=O)O)NC(=O)c1ccc2ccccc2c1` [Compound 42] yielded a pIC50 (central CCK-B receptor) of 5.73.
With `O=C(O)CCNC(=O)CC[C@@H](NC(=O)c1cc(Cl)cc(Cl)c1)C(=O)N1CCC2(CCCC2)CC1` [Compound 3] the pIC50 (central CCK-B receptor) was 6.14.
`O=C(CC[C@@H](NC(=O)c1cc(Cl)cc(Cl)c1)C(=O)N1CCC2(CCCC2)CC1)NCc1ccc(C(=O)O)cc1` [Compound 56] gave a pIC50 (central CCK-B receptor) of 4.71.
In the case of `CC(Cc1ccccc1)(NC(=O)CC[C@@H](NC(=O)c1cc(Cl)cc(Cl)c1)C(=O)N1CCC2(CCCC2)CC1)C(=O)O` (stereo partly drawn) [Compound 45], the pIC50 (central CCK-B receptor) was 6.24.
Work on `O=C(CC[C@@H](NC(=O)c1ccccc1)C(=O)N1CCC2(CCCC2)CC1)Nc1ccc(C(=O)O)cc1` [Compound 54] yielded a pIC50 (central CCK-B receptor) of 5.04.
For `O=C(O)CNC(=O)CC[C@@H](NC(=O)c1cc(Cl)cc(Cl)c1)C(=O)N1CCC2(CCCC2)CC1` [Compound 1], the pIC50 (central CCK-B receptor) was 5.97.
`CSCCC(NC(=O)CC[C@@H](NC(=O)c1cc(Cl)cc(Cl)c1)C(=O)N1CCC2(CCCC2)CC1)C(=O)O` (stereo partly drawn) [Compound 7] was tested, and the pIC50 (central CCK-B receptor) was 6.29.
`CN(C(=O)CC[C@@H](NC(=O)c1cc(Cl)cc(Cl)c1)C(=O)N1CCC2(CCCC2)CC1)c1ccc(C(=O)O)cc1` [Compound 48] showed a pIC50 (central CCK-B receptor) of 6.36.
`Cc1cccc(C(=O)N[C@H](CCC(=O)N[C@H](Cc2c[nH]c3ccccc23)C(=O)O)C(=O)N2CCC3(CCCC3)CC2)c1` [Compound 32] showed a pIC50 (central CCK-B receptor) of 5.45.
Work on `CN(C(=O)[C@@H](CCC(=O)O)NC(=O)CC[C@@H](NC(=O)c1cc(Cl)cc(Cl)c1)C(=O)N1CCC2(CCCC2)CC1)c1ccccc1` [Compound 37] yielded a pIC50 (central CCK-B receptor) of 6.15.
`O=C(O)CCCNC(=O)CC[C@@H](NC(=O)c1cc(Cl)cc(Cl)c1)C(=O)N1CCC2(CCCC2)CC1` [Compound 4] was tested, and the pIC50 (central CCK-B receptor) was 5.90.
In the case of `O=C(CC[C@H](NC(=O)c1cc(Cl)cc(Cl)c1)C(=O)N1CCC2(CCCC2)CC1)N[C@H](Cc1ccccc1)C(=O)O` [Compound S-9, reference compound], the “times less active than its R diastereoisomer, compound 9 (centre *)” value (central CCK-B receptor; binding, guinea-pig cortex) was “about 250 times”, the pIC50 (central CCK-B receptor) was 4.41 and the “CCK-B-antagonistic activity in vitro, result in words” value (central CCK-B receptor; see Table 3) was “weak CCK-B-antagonistic activity”. The “EFF. % VS CONTROL (LIGHT TIME TOTAL TIME)” value (mouse; 1.0 mg/kg IP) was 3%, the “EFF. % VS CONTROL (LIGHT-DARK MOVEMENTS)” value (mouse; 1.0 mg/kg IP) was 6% and the “EFF. % VS CONTROL (MOV. DARK % TOTAL MOV.)” value (mouse; 1.0 mg/kg IP) was -5%. For the same compound, the “LIGHT TIME TOTAL TIME” value (mouse; 1.0 mg/kg IP) was 28.5%, the “LIGHT-DARK MOVEMENTS” value (mouse; 1.0 mg/kg IP) was 18.2 and the “MOV. DARK % TOTAL MOV.” value (mouse; 1.0 mg/kg IP) was 57%. For the same compound, the “TOTAL MOVEMENTS” value (mouse; 1.0 mg/kg IP) was 528, the “EFF. % VS CONTROL (LIGHT TIME TOTAL TIME)” value (mouse; 10.0 mg/kg IP) was 0% and the “EFF. % VS CONTROL (LIGHT-DARK MOVEMENTS)” value (mouse; 10.0 mg/kg IP) was 0%. For the same compound, the “EFF. % VS CONTROL (MOV. DARK % TOTAL MOV.)” value (mouse; 10.0 mg/kg IP) was “+3%”, the “LIGHT TIME TOTAL TIME” value (mouse; 10.0 mg/kg IP) was 24.9% and the “LIGHT-DARK MOVEMENTS” value (mouse; 10.0 mg/kg IP) was 14.4. The “MOV. DARK % TOTAL MOV.” value (mouse; 10.0 mg/kg IP) was 62%, the “TOTAL MOVEMENTS” value (mouse; 10.0 mg/kg IP) was 495 and the “anxiolytic activity, result in words” value (mouse) was “completely inactive”.
`O=C(CC[C@@H](NC(=O)c1cc(Cl)cc(Cl)c1)C(=O)N1CCC2(CCCC2)CC1)N[C@@H](C(=O)O)c1ccccc1` [Compound 13] gave a pIC50 (central CCK-B receptor) of 6.38.
Compound `O=C(O)CC[C@@H](NC(=O)CC[C@@H](NC(=O)c1cc(Cl)cc(Cl)c1)C(=O)N1CCC2(CCCC2)CC1)C(=O)N1CCC2(CCCC2)CC1` [Compound 36] has a pIC50 (central CCK-B receptor) of 5.77.
